Read-outs that look alike come from different tables or passages of the source.
Tests used:
Format in all cases: cell-based
[1] = test system: VZV (varicella zoster virus, strain ELLEN); experiment: VZV antiviral assay, plaque reduction in WI-38 cell culture monolayers
Method: (§1) Assays were performed in cell culture systems to determine the concentrations of compounds that are effective in preventing several kinds of viral infections.
(§2) HSV-1 (herpes simplex virus type 1, strain Schooler), HSV-2 (herpes simplex virus type 2, strain 186), VZV (varicella zoster virus, strain ELLEN), HCMV (human cytomegalovirus, strain AD 169), MuLV (murine leukemia virus, strain CAS), HIV (human immunodeficiency virus, strain HTLV-IIIB).
(§3) HSV-1, HSV-2, HCMV, and VZV antiviral assays: Virus was adsorbed to WI-38 cell culture monolayers in 6 well culture plates (Costar, Cambridge, MA) for 1 hour prior to addition of maintenance medium containing duplicate dilutions of the test compound. Inhibition of plaque development was evaluated on fixed and stained monolayers after 4 days incubation at 37° C. for HSV-1 and HSV-2 and after 6-7 days incubation at 37° C. for HCMV and VZV. ID50 values were determined from the drug concentration which conferred at least a 50% plaque reduction compared to virus controls.

[2] = test system: HSV-1 (herpes simplex virus type 1, strain Schooler); experiment: HSV-1 antiviral assay, plaque reduction in WI-38 cell culture monolayers; conditions: Human alphaherpesvirus 1, 96 h; at least 50% plaque reduction; WI-38 cells; 4 days incubation at 37° C; read-out: ID50 HSV-1
Method: as §1, §2, §3

[3] = test system: HSV-2 (herpes simplex virus type 2, strain 186); experiment: HSV-2 antiviral assay, plaque reduction in WI-38 cell culture monolayers; conditions: Human alphaherpesvirus 2, 96 h; at least 50% plaque reduction; WI-38 cells; 4 days incubation at 37° C; read-out: ID50 HSV-2
Method: as §1, §2, §3

[4] = test system: HCMV (human cytomegalovirus, strain AD 169); experiment: HCMV antiviral assay, plaque reduction in WI-38 cell culture monolayers
Method: as §1, §2, §3

[5] = test system: MuLV (murine leukemia virus, strain CAS); experiment: MuLV antiviral assay, syncytial plaques, SC-1 cells with XC cell overlay; conditions: SC1, read-out: ID50 MuLV
Method: as §1, §2
MuLV antiviral assay: Antiviral assays using MuLV were performed with some modification, as described by Rowe et al. and Shannon et al.. SC-1 cells were planted at approximately 2×10^5 cell per well in 6 well plates. After overnight incubation at 37° C., the cell cultures were sensitized with DEAE-Dextran for one hour at 37° C., rinsed and inoculated with MuLV. Cultures were re-fed with growth medium containing different concentrations of the test compound. After three more days at 37° C., cultures were re-fed with fresh medium plus test compounds and incubated at 37° C. for an additional 3 days. Cultures were then washed to remove medium, ultraviolet light irradiated, and planted with approximately 5×10^5 XC cells per well in cell growth medium containing the appropriate concentration of the test compound. […] Finally the cultures were rinsed, stained and syncytial plaques were counted. […]

[6] = Human alphaherpesvirus 3, at least 50% plaque reduction, WI-38 cells, 6-7 days incubation at 37° C, read-out: ID50 VZV
[7] = Human betaherpesvirus 5, WI-38, read-out: ID50 HCMV
[8] = Human alphaherpesvirus 3, WI-38, read-out: ID50 VZV

Row | SMILES | IC50 [1, 6] | IC50 [2] | IC50 [3] | IC50 [4, 7] | IC50 [1, 8] | IC50 ([4]; Human betaherpesvirus 5, at least 50% plaque reduction, WI-38 cells, 6-7 days incubation at 37° C, read-out: ID50 HCMV) | IC50 [5]
1 | O=c1[nH]c(=O)n([C@H]2C[C@@H](CO)[C@@H]2CO)cc1I (relative stereo) [(1α,2β,3α)-1-[2,3-Bis(hydroxymethyl)cyclobutyl]-5-iodo-2,4(1H,3H)-pyrimidinedione] | 14 to 28 µM | 6 to 14 µM | – | – | – | – | –
2 | Nc1ncnc2c1ncn2[C@H]1C[C@@H](CO)[C@@H]1CO (relative stereo) [(1α,2β,3α)-3-(6-Amino-9H-purin-9-yl)1,2-cyclobutanedimethanol] | 0.8 to 2 µM | 8 µM | 4 to 8 µM | 0.8 µM | – | – | –
3 | Nc1ccn([C@H]2C[C@@H](CO)[C@@H]2CO)c(=O)n1 (relative stereo) [(1α,2β,3α)-4-Amino-1-[2,3-bis(hydroxymethyl)cyclobutyl]-2(1H)-pyrimidinone] | – | 444 µM | 444 µM | – | 22 µM | 22 to 44 µM | –
4 | Nc1nc2c(nnn2[C@H]2C[C@@H](CO)[C@@H]2CO)c(=O)[nH]1 (relative stereo) [(1α,2β,3α)-5-Amino-3-[2,3-bis(hydroxymethyl)cyclobutyl]-3,6-dihydro-7H-1,2,3-triazolo[4,5-d]pyrimidin-7-one] | – | 7.5 µM | 7.5 µM | 376 µM | – | – | –
5 | Nc1nc2c(ncn2[C@H]2C[C@@H](CO)[C@@H]2CO)c(=O)[nH]1 (relative stereo) [(1α,2β,3α)-9-[2,3-Bis(hydroxymethyl)cyclobutyl]guanine] | – | 0.08 to 0.2 µM | 0.04 to 0.08 µM | 3.8 µM | 0.2 µM | – | 3.8 µM
6 | O=c1[nH]c(=O)n([C@H]2C[C@@H](CO)[C@@H]2CO)cc1/C=C/Br (relative stereo) [[1α(E),2β,3α]-1-[2,3-Bis(hydroxymethyl)cyclobutyl]-5-(2-bromoethenyl)-2,4(1H,3H)pyrimidinedione] | 0.03 to 0.06 µM | 10 to 30 µM | – | – | – | – | –

From patent publication US5126345A, “Bis (hydroxymethyl) cyclobutyl triazolopyrimidines” (E. R. Squibb & Sons, Inc., priority 1991, dated 1992)
